Reference: patent publication US20210214375A1 (LUNDBECK LA JOLLA RESEARCH CENTER, INC., priority 2017, published 2021)
Read-outs that look alike come from different tables or passages of the source.

Legend:
Format in all cases: biochemical
ABHD6 = molecular target: T1, ABHD6 (Mus musculus, UniProt Q8R2Y0); test: In vitro competitive activity-based protein profiling, mouse brain proteome, ABHD6; conditions: for % Inh ABHD6 Brain (Mouse, μM): mouse brain proteome; for IC50: mouse
T1 construct: Brain; from tissue; host or cells: mouse brain proteome
T1 sequence (Q8R2Y0 1-336): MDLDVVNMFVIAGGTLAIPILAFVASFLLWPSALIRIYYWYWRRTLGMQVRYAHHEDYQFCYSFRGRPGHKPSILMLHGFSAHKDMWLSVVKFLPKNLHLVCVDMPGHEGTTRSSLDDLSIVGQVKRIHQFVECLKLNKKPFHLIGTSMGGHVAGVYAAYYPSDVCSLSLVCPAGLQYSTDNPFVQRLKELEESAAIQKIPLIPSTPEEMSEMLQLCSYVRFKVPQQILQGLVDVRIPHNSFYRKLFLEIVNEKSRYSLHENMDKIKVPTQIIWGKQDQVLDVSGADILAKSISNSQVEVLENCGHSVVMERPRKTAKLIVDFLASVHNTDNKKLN
Experimental: [Worded in the source for another target; this target is reported under the same test.] (§1) Proteomes (human prefrontal cortex or cell membrane fractions) (50 μL, 1.0 mg/mL total protein concentration) were preincubated with varying concentrations of inhibitors at 37° C. After 30 min, FP—Rh or HT-01 (1.0 μL, 50 μM in DMSO) was added and the mixture was incubated for another 30 min at room temperature. Reactions were quenched with SDS loading buffer (15 μL-4×) and run on SDS-PAGE.

MAGL = molecular target: T2, MAGL (Homo sapiens, UniProt Q99685); test: In vitro competitive activity-based protein profiling (gel-based, FP-Rh or HT-01 probe)
T2 construct: Proteomes (human prefrontal cortex or cell membrane fractions); from tissue
T2 sequence (Q99685 1-303): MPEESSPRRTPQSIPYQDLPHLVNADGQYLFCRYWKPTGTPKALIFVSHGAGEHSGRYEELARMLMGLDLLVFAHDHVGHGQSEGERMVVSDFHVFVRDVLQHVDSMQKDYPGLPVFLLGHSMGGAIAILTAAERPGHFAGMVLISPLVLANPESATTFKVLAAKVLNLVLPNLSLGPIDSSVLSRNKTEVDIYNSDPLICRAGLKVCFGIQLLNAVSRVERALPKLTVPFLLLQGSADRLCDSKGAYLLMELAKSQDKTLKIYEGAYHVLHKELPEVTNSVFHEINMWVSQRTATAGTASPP
Experimental: Compounds are tested to assess their MAGL and serine hydrolase activity using the following in vitro and in vivo assays.
as §1

MGLL = molecular target: T3, MGLL (Mus musculus, UniProt O35678); test: In vitro competitive activity-based protein profiling, mouse brain proteome
T3 construct: Brain; from tissue; host or cells: mouse brain proteome
T3 sequence (O35678 1-303): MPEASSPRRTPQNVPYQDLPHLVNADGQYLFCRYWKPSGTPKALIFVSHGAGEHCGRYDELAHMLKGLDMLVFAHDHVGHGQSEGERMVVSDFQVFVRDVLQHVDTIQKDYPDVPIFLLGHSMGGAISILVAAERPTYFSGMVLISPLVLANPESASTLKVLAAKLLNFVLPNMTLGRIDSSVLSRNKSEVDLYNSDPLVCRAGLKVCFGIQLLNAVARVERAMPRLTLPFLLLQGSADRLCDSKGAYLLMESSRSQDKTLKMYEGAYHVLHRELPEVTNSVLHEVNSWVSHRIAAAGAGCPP
Experimental: [Worded in the source for another species; this species is reported under the same test.] as §1

[1] = PFC (prefrontal cortex) proteome, read-out: IC50 MGLL PFC (Human)

IC50 (ABHD6) [µM] | IC50 (MGLL) [µM] | Compound | also measured
– | – | O=C(O)CN1CC2CC1CN2c1cc(C(F)(F)F)ccc1CN1CCCC12CCN(C(=O)OC(C(F)(F)F)C(F)(F)F)CC2 (centres unmarked) [Example 6, 2-(5-(2-((8-(((1,1,1,3,3,3-hexafluoropropan-2-yl)oxy)carbonyl)-1,8-diazaspiro[4.5]decan-1-yl)methyl)-5-(trifluoromethyl)phenyl)-2,5-diazabicyclo[2.2.1]heptan-2-yl)acetic acid] | % Inh ABHD6 Brain (Mouse, μM) (ABHD6): # (# is ≤ 25%); IC50 (MAGL; PC3 proteome, read-out: IC50 MGLL PC3 (Human)): < 0.1 µM; % Inh MGLL PFC (Human, μM) (MAGL; PFC (prefrontal cortex) proteome): ### (### is ≥ 75%); IC50 (MAGL; [1]): < 0.1 µM; % Inh MGLL Brain (Mouse, μM) (MGLL): ### (### is ≥ 75%)
> 1 | 0.1 to 1 | CN(Cc1cc(N2CCCC2)cc(C(F)(F)F)c1)C1(C)CCN(C(=O)OC(C(F)(F)F)C(F)(F)F)CC1 [Example 76, 1,1,1,3,3,3-Hexafluoropropan-2-yl 4-methyl-4-(methyl(3-(pyrrolidin-1-yl)-5-(trifluoromethyl)benzyl)amino) piperidine-1-carboxylate] | IC50 (MAGL; [1]): < 0.1 µM
– | – | O=C(O)[C@@H]1CCCN1C1CCN(c2cc(C(F)(F)F)ccc2CN2CCCC23CCN(C(=O)OC(C(F)(F)F)C(F)(F)F)CC3)CC1 [Example 164, (1-(2-((8-(((1,1,1,3,3,3-Hexafluoropropan-2-yl)oxy)carbonyl)-1,8-diazaspiro[4.5]decan-1-yl)methyl)-5-(trifluoromethyl)phenyl)piperidin-4-yl)-L-proline] | % Inh ABHD6 Brain (Mouse, μM) (ABHD6): # (# is ≤ 25%); % Inh MGLL PC3 (Human, μM) (MAGL; PC3 proteome): ### (### is ≥ 75%); % Inh MGLL Brain (Mouse, μM) (MGLL): ### (### is ≥ 75%)
> 1 | > 1 | CC(=O)N1CCCc2cccc(CN3CCC4(CC3)CCN(C(=O)OC(C(F)(F)F)C(F)(F)F)C4)c21 [Example 193, 1,1,1,3,3,3-Hexafluoropropan-2-yl 8-((1-acetyl-1,2,3,4-tetrahydroquinolin-8-yl)methyl)-2,8-diazaspiro[4.5]decane-2-carboxylate] | –
> 1 | < 0.1 | CC(=O)N1CC2CN(c3cc(C(F)(F)F)ccc3CN3CCN(C(=O)OC(C(F)(F)F)C(F)(F)F)CC3)CC2C1 (centres unmarked) [Example 200, 1,1,1,3,3,3-Hexafluoropropan-2-yl 4-(2-(5-acetylhexahydropyrrolo[3,4-c]pyrrol-2(1H)-yl)-4-(trifluoromethyl)benzyl)piperazine-1-carboxylate] | –
> 1 | < 0.1 | CS(=O)(=O)N1CC2CN(c3cc(C(F)(F)F)ccc3CN3CCN(C(=O)OC(C(F)(F)F)C(F)(F)F)CC3)CC2C1 (centres unmarked) [Example 201, 1,1,1,3,3,3-Hexafluoropropan-2-yl 4-(2-(5-(methylsulfonyl)hexahydropyrrolo[3,4-c]pyrrol-2(1H)-yl)-4-(trifluoromethyl)benzyl)piperazine-1-carboxylate] | –
> 1 | 0.1 to 1 | CC(=O)N1CC2CN(c3cc(Cl)ccc3CN3CCN(C(=O)OC(C(F)(F)F)C(F)(F)F)CC3)CC2C1 (centres unmarked) [Example 202, 1,1,1,3,3,3-Hexafluoropropan-2-yl 4-(2-(5-acetylhexahydro-pyrrolo[3,4-c]pyrrol-2(1H)-yl)-4-chlorobenzyl) piperazine-1-carboxylate] | –
> 1 | 0.1 to 1 | CS(=O)(=O)N1CC2CN(c3cc(Cl)ccc3CN3CCN(C(=O)OC(C(F)(F)F)C(F)(F)F)CC3)CC2C1 (centres unmarked) [Example 203, 1,1,1,3,3,3-Hexafluoropropan-2-yl 4-(4-chloro-2-(5-(methylsulfonyl)hexahydropyrrolo[3,4-c]pyrrol-2(1H)-yl)benzyl)piperazine-1-carboxylate] | –
> 1 | 0.1 to 1 | CC(=O)N1CCCC12CCN(c1cc(Cl)ccc1CN1CCN(C(=O)OC(C(F)(F)F)C(F)(F)F)CC1)CC2 [Example 204, 1,1,1,3,3,3-Hexafluoropropan-2-yl 4-(2-(1-acetyl-1,8-diazaspiro[4.5]decan-8-yl)-4-chlorobenzyl) piperazie-1-carboxylate] | –
> 1 | 0.1 to 1 | CS(=O)(=O)N1CCCC12CCN(c1cc(Cl)ccc1CN1CCN(C(=O)OC(C(F)(F)F)C(F)(F)F)CC1)CC2 [Example 205, 1,1,1,3,3,3-Hexafluoropropan-2-yl 4-(4-chloro-2-(1-(methylsulfonyl)-1,8-diazaspiro[4.5]decan-8-yl)benzyl)piperazine-1-carboxylate] | –
> 1 | 0.1 to 1 | CN1CC2CN(c3cc(Cl)ccc3CN3CCN(C(=O)OC(C(F)(F)F)C(F)(F)F)CC3)CC2C1 (centres unmarked) [Example 206, 1,1,1,3,3,3-Hexafluoropropan-2-yl 4-(4-chloro-2-(5-methylhexahydro-pyrrolo[3,4-c]pyrrol-2(1H)-yl)benzyl)piperazine-1-carboxylate] | –
> 1 | 0.1 to 1 | CC(=O)N1CCCC12CCN(c1cc(C(F)(F)F)ccc1CN1CCN(C(=O)OC(C(F)(F)F)C(F)(F)F)CC1)CC2 [Example 208, 1,1,1,3,3,3-Hexafluoropropan-2-yl 4-(2-(1-acetyl-1,8-diazaspiro[4.5]decan-8-yl)-4-(trifluoromethyl)benzyl)piperazine-1-carboxylate] | –
0.1 to 1 | < 0.1 | CS(=O)(=O)N1CCCC12CCN(c1cc(C(F)(F)F)ccc1CN1CCN(C(=O)OC(C(F)(F)F)C(F)(F)F)CC1)CC2 [Example 209, 1,1,1,3,3,3-Hexafluoropropan-2-yl-((2-(1-(methylsulfonyl)-1,8-diazaspiro[4.5]decan-8-yl)-4-(trifluoromethyl)benzyl)piperazine-1-carboxylate] | –
> 1 | 0.1 to 1 | CN1CCCC12CCN(c1cc(Cl)ccc1CN1CCN(C(=O)OC(C(F)(F)F)C(F)(F)F)CC1)CC2 [Example 214, 1,1,1,3,3,3-Hexafluoropropan-2-yl 4-(4-chloro-2-(1-methyl-1,8-diazaspiro[4.5]decan-8-yl)benzyl)piperazine-1--carboxylate] | –
> 1 | 0.1 to 1 | CN1CCCC12CCN(c1cc(C(F)(F)F)ccc1CN1CCN(C(=O)OC(C(F)(F)F)C(F)(F)F)CC1)CC2 [Example 215, 1,1,1,3,3,3-Hexafluoropropan-2-yl 4-(2-(1-methyl-1,8-diazaspiro[4.5]decan-8-yl)-4-(trifluoromethyl)benzyl)piperazine-1-carboxylate] | –
0.1 to 1 | < 0.1 | CS(=O)(=O)N1CCc2cccc(CN3CCC4(CC3)CCN(C(=O)OC(C(F)(F)F)C(F)(F)F)C4)c2C1 [Example 217, 1,1,1,3,3,3-Hexafluoropropan-2-yl 8-((2-(methylsulfonyl)-1,2,3,4-tetrahydroisoquinolin-8-yl)methyl)-2,8-diazaspiro[4.5]decane-2-carboxylate] | –
> 1 | 0.1 to 1 | CC(=O)N1CC2(CCN(c3ccccc3CN3CCC34CCN(C(=O)OC(C(F)(F)F)C(F)(F)F)CC4)C2)C1 [Example 228, 1,1,1,3,3,3-Hexafluoropropan-2-yl 1-(2-(2-acetyl-2,6-diazaspiro[3.4]octan-6-yl)benzyl)-1,7-diazaspiro[3.5]nonane-7-carboxylate] | –
0.1 to 1 | > 1 | CS(=O)(=O)N1CCC2(CCN(c3cc(Cl)cc(CN4CCCC45CN(C(=O)OC(C(F)(F)F)C(F)(F)F)C5)c3)CC2)C1 [Example 232] | –
